Measured values as given in patent US9981916B2 (Genentech, Inc., priority 2013, dated 2018).

Biological target: T1, RORc ligand binding domain (Homo sapiens, UniProt P51449)
T1 construct: host or cells: E. coli
T1 sequence (P51449 269-508 limits assumed): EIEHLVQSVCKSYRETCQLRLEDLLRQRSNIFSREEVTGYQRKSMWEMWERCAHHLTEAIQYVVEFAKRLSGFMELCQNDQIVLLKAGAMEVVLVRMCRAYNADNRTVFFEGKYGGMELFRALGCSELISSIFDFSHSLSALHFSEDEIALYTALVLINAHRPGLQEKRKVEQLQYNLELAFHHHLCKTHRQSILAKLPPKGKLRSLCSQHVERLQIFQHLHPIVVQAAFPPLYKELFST
Test: In vitro RORc ligand binding assay (25-[3H]hydroxycholesterol displacement, filter binding)
Conditions: 6 nM 25-[3H]hydroxycholesterol, 0.6 ug/mL RORc receptor, 3 h at 25° C.
In short: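 Filter-binding displacement of 6 nM 25-[3H]hydroxycholesterol from RORc receptor (0.6 ug/mL) in 50 mM HEPES pH 7.4, 150 mM NaCl, 5 mM MgCl2, 1 mM DTT, 0.01% BSA, 5% DMSO; 3 h at 25° C. NSB defined with 1 uM 25-hydroxycholesterol; scintillation counting gave Kiapp, IC50 or % inhibition (screening at 1 and 10 uM).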

Row | IC50 [µM] | SMILES
1 | 1.46 | CC1(C)[C@H]2CC[C@]1(N(CC(F)F)C(=O)CO)c1nnc(-c3c(F)cccc3F)cc12 [Example 322, N-(2,2-difluoroethyl)-N-((5R,8R)-3-(2,6-difluorophenyl)-9,9-dimethyl-5,6,7,8-tetrahydro-5,8-methanocinnolin-8-yl)-2-hydroxyacetamide]
2 | 2.82 | CC1(C)[C@@H]2CC[C@@]1(C(=O)Nc1ccc(C#N)cn1)c1nnc(-c3c(F)cccc3F)cc12 [Example 205, (5S,8S)-N-(5-cyanopyridin-2-yl)-3-(2,6-difluorophenyl)-9,9-dimethyl-5,6,7,8-tetrahydro-5,8-methanocinnoline-8-carboxamide]
3 | 2.07 | CCNC(=O)N(C)[C@@]12CC[C@@H](c3cc(-c4c(F)cccc4F)nnc31)C2(C)C [Example 285, 1-((5R,8R)-3-(2,6-difluorophenyl)-9,9-dimethyl-5,6,7,8-tetrahydro-5,8-methanocinnolin-8-yl)-3-ethyl-1-methylurea]
4 | 0.029 | CN(C)C(=O)[C@]12CC[C@H](c3cc(-c4c(F)cccc4F)nnc31)C2(C)C [Example 73, (5S,8S)-3-(2,6-difluorophenyl)-N,N,9,9-tetramethyl-6,7-dihydro-5,8-methanocinnoline-8(5H)-carboxamide]
5 | 0.193 | CC1(C)[C@@H]2CC[C@@]1(C(=O)NCC1CC1)c1nnc(-c3c(F)cccc3F)cc12 [Example 202, (5S,8S)-N-(cyclopropylmethyl)-3-(2,6-difluorophenyl)-9,9-dimethyl-5,6,7,8-tetrahydro-5,8-methanocinnoline-8-carboxamide]
6 | 0.856 | CN(C)C(=O)[C@@]12CC[C@@H](c3cc(-c4c(F)cccc4F)nnc31)C2(C)C [Example 82, (5R,8R)-3-(2,6-difluorophenyl)-N,N,9,9-tetramethyl-6,7-dihydro-5,8-methanocinnoline-8(5H)-carboxamide]
7 | 1.01 | Cc1nnc(NC(=O)[C@]23CC[C@H](c4cc(-c5c(F)cccc5F)nnc42)C3(C)C)o1 [Example 84, (5S,8S)-3-(2,6-difluorophenyl)-9,9-dimethyl-N-(5-methyl-1,3,4-oxadiazol-2-yl)-6,7-dihydro-5,8-methanocinnoline-8(5H)-carboxamide]
8 | 1.22 | CC(=O)N(C)C1CCN(C(=O)[C@]23CC[C@H](c4cc(-c5c(F)cccc5F)nnc42)C3(C)C)C1 (stereo partly drawn) [Example 203, N-(1-((5S,8S)-3-(2,6-difluorophenyl)-9,9-dimethyl-5,6,7,8-tetrahydro-5,8-methanocinnoline-8-carbonyl)pyrrolidin-3-yl)-N-methylacetamide]
9 | 1.82 | Cc1nnc(N(C)[C@@]23CC[C@@H](c4cc(-c5ccccc5F)nnc42)C3(C)C)o1 [Example 230, N-((5R,8R)-3-(2-fluorophenyl)-9,9-dimethyl-5,6,7,8-tetrahydro-5,8-methanocinnolin-8-yl)-N,5-dimethyl-1,3,4-oxadiazol-2-amine]
10 | 0.92 | CN(CC(N)=O)[C@@]12CC[C@@H](c3cc(-c4c(F)cccc4F)nnc31)C2(C)C [Example 306, 2-(((5R,8R)-3-(2,6-difluorophenyl)-9,9-dimethyl-5,6,7,8-tetrahydro-5,8-methanocinnolin-8-yl)(methyl)amino) acetamide]
11 | 0.067 | Cc1noc([C@@]23CC[C@@H](c4cc(-c5c(F)cccc5F)nnc42)C3(C)C)n1 [Example 64, (5R,8R)-3-(2,6-difluorophenyl)-9,9-dimethyl-8-(3-methyl-1,2,4-oxadiazol-5-yl)-5,6,7,8-tetrahydro-5,8-methanocinnoline]
12 | 0.471 | Cn1nc([C@]23CC[C@H](c4cc(-c5c(F)cccc5F)nnc42)C3(C)C)oc1=O [Example 263, 5-((5S,8S)-3-(2,6-difluorophenyl)-9,9-dimethyl-5,6,7,8-tetrahydro-5,8-methanocinnolin-8-yl)-3-methyl-1,3,4-oxadiazol-2(3H)-one]
13 | 1.11 | C[C@H]1COC(=O)N1C[C@@]12CC[C@@H](c3cc(-c4c(F)cccc4F)nnc31)C2(C)C [Example 295, (S)-3-(((5R,8S)-3-(2,6-difluorophenyl)-9,9-dimethyl-5,6,7,8-tetrahydro-5,8-methanocinnolin-8-yl)methyl)-4-methyloxazolidin-2-one]
14 | 5.17 | CN(C)C(=O)C[C@]12CC[C@H](c3cc(-c4ccccc4F)nnc31)C2(C)C [Example 36, 2-[(5S,8S)-3-(2-fluorophenyl)-9,9-dimethyl-6,7-dihydro-5,8-methanocinnolin-8(5H)-yl]-N,N-dimethylacetamide]
15 | 0.108 | CCN(C[C@@]12CC[C@@H](c3cc(-c4c(F)cccc4F)nnc31)C2(C)C)c1nccc(=O)[nH]1 [Example 302, 2-((((5R,8S)-3-(2,6-difluorophenyl)-9,9-dimethyl-5,6,7,8-tetrahydro-5,8-methanocinnolin-8-yl)methyl)(ethyl)amino) pyrimidin-4(3H)-one]
16 | 0.338 | CC1(C)[C@@H]2CC[C@@]1(I)c1nnc(-c3ccccc3F)cc12 [Example 200, (5R,8S)-3-(2-fluorophenyl)-8-iodo-9,9-dimethyl-5,6,7,8-tetrahydro-5,8-methanocinnoline]
17 | 0.707 | CN(C)[C@@H]1CCN(C(=O)[C@]23CC[C@H](c4cc(-c5c(F)cccc5F)nnc42)C3(C)C)C1 [Example 242, ((5S,8S)-3-(2,6-difluorophenyl)-9,9-dimethyl-5,6,7,8-tetrahydro-5,8-methanocinnolin-8-yl) ((R)-3-(dimethylamino)pyrrolidin-1-yl)methanone]
18 | 3.81 | CNC(=O)C1CN(C(=O)[C@@]23CC[C@@H](c4cc(-c5ccccc5F)nnc42)C3(C)C)CCO1 (stereo partly drawn) [Example 180, 4-((5R,8R)-3-(2-fluorophenyl)-9,9-dimethyl-5,6,7,8-tetrahydro-5,8-methanocinnoline-8-carbonyl)-N-methylmorpholine-2-carboxamide]
19 | 0.124 | CC1(C)[C@H]2CC[C@]1(CN(CCO)c1ncccn1)c1nnc(-c3c(F)cccc3F)cc12 [Example 272, 2-((((5R,8S)-3-(2,6-difluorophenyl)-9,9-dimethyl-5,6,7,8-tetrahydro-5,8-methanocinnolin-8-yl)methyl)(pyrimidin-2-yl)amino)ethanol]
20 | 0.61 | Cn1ncnc1[C@@]12CC[C@@H](c3cc(-c4c(F)cccc4F)nnc31)C2(C)C [Example 251, (5R,8R)-3-(2,6-difluorophenyl)-9,9-dimethyl-8-(1-methyl-1H-1,2,4-triazol-5-yl)-5,6,7,8-tetrahydro-5,8-methanocinnoline]
21 | 2.67 | CC1(C)[C@H]2CC[C@]1(C(=O)NCCO)c1nnc(-c3ccccc3F)cc12 [Example 176, (5R,8R)-3-(2-fluorophenyl)-N-(2-hydroxyethyl)-9,9-dimethyl-5,6,7,8-tetrahydro-5,8-methanocinnoline-8-carboxamide]
22 | 0.096 | Cc1coc([C@@]23CC[C@@H](c4cc(-c5c(F)cccc5F)nnc42)C3(C)C)n1 [Example 108, (5R,8R)-3-(2,6-difluorophenyl)-9,9-dimethyl-8-(4-methyl-1,3-oxazol-2-yl)-5,6,7,8-tetrahydro-5,8-methanocinnoline]
23 | 0.83 | CC1(C)[C@@H]2CC[C@@]1(C(=O)N1CC[C@H](CO)C1)c1nnc(-c3c(F)cccc3F)cc12 [Example 216, ((5S,8S)-3-(2,6-difluorophenyl)-9,9-dimethyl-5,6,7,8-tetrahydro-5,8-methanocinnolin-8-yl)((S)-3-(hydroxymethyl)pyrrolidin-1-yl)methanone]
24 | 0.756 | CC1(C)[C@@H]2CC[C@@]1(Cc1noc(CO)n1)c1nnc(-c3ccccc3F)cc12 [Example 45, (3-{[(5S,8S)-3-(2-fluorophenyl)-9,9-dimethyl-6,7-dihydro-5,8-methanocinnolin-8(5H)-yl]methyl}-1,2,4-oxadiazol-5-yl)methanol]
25 | 0.218 | CN(C(=O)OC(C)(C)C)[C@@]12CC[C@@H](c3cc(-c4c(F)cccc4F)nnc31)C2(C)C [Example 281, tert-butyl ((5R,8R)-3-(2,6-difluorophenyl)-9,9-dimethyl-5,6,7,8-tetrahydro-5,8-methanocinnolin-8-yl)(methyl)carbamate]
26 | 3.17 | CC1(C)[C@@H]2CC[C@@]1(Cn1ccnc1)c1nnc(-c3ccccc3F)cc12 [Example 17, (5S,8R)-3-(2-fluorophenyl)-8-(1H-imidazol-1-ylmethyl)-9,9-dimethyl-5,6,7,8-tetrahydro-5,8-methanocinnoline]
27 | 0.848 | CC1(C)[C@@H]2CC[C@@]1(C(=O)Nc1ccc(C#N)cn1)c1nnc(-c3ccccc3F)cc12 [Example 128, (5S,8S)-N-(5-cyanopyridin-2-yl)-3-(2-fluorophenyl)-9,9-dimethyl-5,6,7,8-tetrahydro-5,8-methanocinnoline-8-carboxamide]
28 | 2.13 | CC1(C)[C@H]2C[C@@H](F)[C@]1(C)c1nnc(-c3ccccc3F)cc12 [Example 31, (5R,7R,8S)-7-fluoro-3-(2-fluorophenyl)-8,9,9-trimethyl-5,6,7,8-tetrahydro-5,8-methanocinnoline]
29 | 0.202 | Cc1nc([C@@]23CC[C@@H](c4cc(-c5c(F)cccc5F)nnc42)C3(C)C)co1 [Example 192, 4-((5R,8S)-3-(2,6-difluorophenyl)-9,9-dimethyl-5,6,7,8-tetrahydro-5,8-methanocinnolin-8-yl)-2-methyloxazole]
30 | 0.707 | CC1(C)[C@@H]2CC[C@@]1(C(=O)NCC1CC1)c1nnc(-c3ccccc3F)cc12 [Example 132, (5S,8S)-N-(cyclopropylmethyl)-3-(2-fluorophenyl)-9,9-dimethyl-5,6,7,8-tetrahydro-5,8-methanocinnoline-8-carboxamide]
